From US6737382B1, “Insecticidal aminothiazole derivatives” (Nippon Soda Co. Ltd., priority 2002, dated 2004)

What was measured:
Tetranychus urticae = test: Efficacy against Tetranychus urticae (two-spotted spider mites), spray on kidney-bean seedling; details: in vivo
Protocol: Efficacy Against Tetranychus urticae (Tu; Two-spotted Spider Mites
Fifteen adult females were inoculated on a potted Kidney-bean seedling. On the next day, the chemical solution at different concentration was sprayed on the Kidney-bean seedling by a glass nozzle using an air compressor. After air-dried the Kidney-bean pot was maintained in a room kept at 25° C. and 65%RH.
On three days after treatment, the numbers of dead and alive mites were counted and mortality was calculated by Abbott's formula.
Each test was duplicated. [formula]

Pseudaletia separata = test: whole plant or invertebrate; format: in vivo; details: Mythimna separata, in Zea mays, foliar, 120 h
Protocol: Efficacy Against Pseudaletia separata Walker (Ps; Rice Armyworm)
A piece of Maize leaf (ca. 7×1.5 cm) was dipped in the chemical solution at 125 ppm for 30 sec and air-dried. The leaf was placed in a glass petri dish (9 cm diameter) and five second-instar larvae of Pseudaletia separata were introduced into the petri dish. Five days after the treatment, the number of survival larvae was counted and the mortality was calculated by Abbott's formula. Each test was duplicated.

Plutella xylostella = test: whole plant or invertebrate; format: in vivo; details: in Brassica oleracea, 72 h
From the text: Efficacy Against Plutella xylostella Linne (Px; Diamondback Moth)
The chemical solution at 125 ppm was sprayed on a Cabbage seedling by a glass nozzle using an air compressor. After airdried, a small leaf (ca. 5 cm diameter) was detached from the treated plant and placed in a glass petri dish (ca. 9 cm diameter). Five second-instar larvae of Plutella xylostella were introduced into the petri dish. Three days after the treatment, the number of survival larvae was counted and the mortality was calculated by Abbott's formula. Each test was duplicated.

Structure (SMILES): O=C(Nc1nc(C(F)(F)F)c(Br)s1)c1ccc(Cl)c(Cl)c1 [Compound 19, N-(5-Bromo-4-trifluoromethylthiazol-2-yl)-3,4-dicloro-benzamide]
- mortality (Tetranychus urticae): 100%

Structure (SMILES): O=C(Nc1nc(C(F)(F)F)c(Br)s1)c1cccs1 [Compound 34, N-(5-Bromo-4-trifluoromethylthiazol-2-yl)thiophene-2-carboxamide]
- melting point: 184 to 185 °C

Structure (SMILES): O=C(Nc1nc(C(F)(F)F)c(I)s1)c1c(Cl)cccc1Cl [Compound 44, N-(5-Iodo-4-trifluoromethylthiazol-2-yl)-2,6-dichloro-benzamide]
- mortality at 125 ppm (Pseudaletia separata): 100%

Structure (SMILES): O=C(Nc1nc(C(F)(F)F)c(I)s1)c1ccc(C(F)(F)F)cc1 [Compound 45, N-(5-Iodo-4-trifluoromethylthiazol-2-yl)-4-trifluoromethyl-benzamide]
- mortality at 125 ppm (Plutella xylostella): 100%
- mortality at 125 ppm (Pseudaletia separata): 100%

Structure (SMILES): O=C(Nc1nc(C(F)(F)F)c(Cl)s1)c1ccc(Cl)c([N+](=O)[O-])c1 [Compound 80, N-(5-Chloro-4-trifluoromethylthiazol-2-yl)-4-chloro-3-nitrobenzamide]
- melting point: 183 to 184 °C

Structure (SMILES): O=C(Nc1nc(C(F)(F)F)c(-c2ccc(F)cc2)s1)c1ccc(C(F)(F)F)cc1 [Compound 81, N-(5-(4-Fluorophenyl)-4-trifluoromethylthiazol-2-yl)-4-trifluoromethylbenzamide]
- mortality at 125 ppm (Pseudaletia separata): 100%

Structure (SMILES): O=C(Nc1nc(C(F)(F)F)c(I)s1)c1cc(C(F)(F)F)cc(C(F)(F)F)c1 [Compound 102, N-(5-Iodo-4-trifluoromethylthiazol-2-yl)-3,5-bis-trifluoromethylbenzamide]
- melting point: 172 to 173 °C

Structure (SMILES): N#CSc1sc(NC(=O)c2cccc(C(F)(F)F)c2)nc1C(F)(F)F [Compound 131, N-(5-thiocyanato-4-trifluoromethylthiazol-2-yl)-3-trifluoromethylbenzamide]
- melting point: 167 to 168 °C
